Reference: ChEMBL document CHEMBL1201862, “PubChem BioAssay data set” (2004)
Active and inactive are the calls of the source. Cut-off read from the data, not from the text of the source, for most assays here: active = EC50 of 10 µM or less and inactive = more.

What was measured:
HEK293 [1] = experiment: optical interference in Abeta FP readout, dose response, artefact control for IDE activator project, biochemical, fluorescence polarization (AID 588442); type: functional, cell-based; conditions: Homo sapiens
Insulin-degrading enzyme [2] = molecular target: T1, Insulin-degrading enzyme (Homo sapiens, UniProt P14735); experiment: recombinant IDE activation, cell-free – biochemical, fluorescence polarization, counter-screen for IDE activator project, dose response (AID 588681)
T1 sequence (P14735 whole entry): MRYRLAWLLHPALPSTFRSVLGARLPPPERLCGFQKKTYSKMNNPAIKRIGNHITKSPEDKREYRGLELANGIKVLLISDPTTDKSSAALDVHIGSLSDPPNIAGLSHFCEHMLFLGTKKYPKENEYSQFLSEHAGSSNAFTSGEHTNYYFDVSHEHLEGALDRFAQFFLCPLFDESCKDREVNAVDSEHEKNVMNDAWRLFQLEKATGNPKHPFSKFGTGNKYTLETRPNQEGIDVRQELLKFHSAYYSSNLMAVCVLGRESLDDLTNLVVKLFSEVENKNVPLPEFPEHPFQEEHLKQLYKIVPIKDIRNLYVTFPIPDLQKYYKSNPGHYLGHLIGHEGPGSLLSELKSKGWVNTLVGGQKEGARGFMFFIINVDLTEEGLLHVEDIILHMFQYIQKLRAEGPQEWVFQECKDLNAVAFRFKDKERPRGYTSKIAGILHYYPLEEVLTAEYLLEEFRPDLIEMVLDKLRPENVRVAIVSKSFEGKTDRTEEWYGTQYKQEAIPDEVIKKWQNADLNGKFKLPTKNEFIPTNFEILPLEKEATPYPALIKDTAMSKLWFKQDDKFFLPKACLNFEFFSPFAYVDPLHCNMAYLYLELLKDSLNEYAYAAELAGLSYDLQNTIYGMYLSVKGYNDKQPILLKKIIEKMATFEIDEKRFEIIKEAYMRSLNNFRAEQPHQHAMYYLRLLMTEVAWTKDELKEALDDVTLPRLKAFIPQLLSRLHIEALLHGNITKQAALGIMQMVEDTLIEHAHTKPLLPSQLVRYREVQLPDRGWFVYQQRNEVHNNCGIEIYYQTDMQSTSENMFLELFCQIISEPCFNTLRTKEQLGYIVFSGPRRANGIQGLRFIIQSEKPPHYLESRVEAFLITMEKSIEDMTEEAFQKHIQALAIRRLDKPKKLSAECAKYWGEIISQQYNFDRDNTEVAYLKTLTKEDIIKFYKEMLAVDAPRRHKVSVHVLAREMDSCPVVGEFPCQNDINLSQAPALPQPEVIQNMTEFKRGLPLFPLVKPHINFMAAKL

HEK293 [3] = experiment: membrane integrity loss in HEK cells – cell-based, fluorescence, cytotoxicity control for IDE activator project, dose response (AID 588440); type: functional; conditions: Homo sapiens;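 note: cytotoxicity by LDH release measuring loss of membrane integrity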
Insulin-degrading enzyme [4] = molecular target: T1, Insulin-degrading enzyme; experiment: cellular IDE activation of Abeta substrate cleavage – fluorescence polarization, HEK cells, dose response (AID 588439); type: functional, cell-based

CCOC(=O)c1cccc(P(C)(C)=O)c1
inactive: EC50 (HEK293 [1]) > 54.7 µM | EC50 (Insulin-degrading enzyme [2]) > 54.7 µM | IC50 (HEK293 [3]) > 89.1 µM | EC50 (Insulin-degrading enzyme [4]) > 54.7 µM
